Data published in article doi:10.1101/2024.11.15.623779v1 (biorxiv, 2024).

Target: T1, GCase (Cerezyme) (Homo sapiens, UniProt P04062, R534H)
T1 sequence (P04062 40-536 R534H): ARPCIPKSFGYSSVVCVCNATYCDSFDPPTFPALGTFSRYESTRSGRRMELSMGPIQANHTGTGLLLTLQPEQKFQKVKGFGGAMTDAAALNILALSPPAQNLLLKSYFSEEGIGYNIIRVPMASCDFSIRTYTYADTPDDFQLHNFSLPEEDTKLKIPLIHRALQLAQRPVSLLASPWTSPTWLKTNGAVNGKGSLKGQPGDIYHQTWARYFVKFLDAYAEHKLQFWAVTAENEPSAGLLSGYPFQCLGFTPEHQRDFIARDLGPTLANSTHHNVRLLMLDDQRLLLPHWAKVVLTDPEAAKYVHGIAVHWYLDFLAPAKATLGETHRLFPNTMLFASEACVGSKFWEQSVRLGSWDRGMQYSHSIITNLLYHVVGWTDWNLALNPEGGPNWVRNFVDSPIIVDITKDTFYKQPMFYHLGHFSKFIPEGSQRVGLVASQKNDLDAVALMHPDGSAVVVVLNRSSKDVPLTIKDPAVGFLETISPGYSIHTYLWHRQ
Assay: SPR, immobilized GCase on CM5 chip
Type: binding
Conditions: pH […] HEPES, […] EDTA, […] NaCl, […] Tween-20; no IFG; allosteric

Substance | Kd [µM]
GT-02287 | 17 to 24
GT-02329 | > 90
